We go through two compounds from paper PMC9223658, “New Borane-Protected Derivatives of α-Aminophosphonous Acid as Anti-Osteosarcoma Agents: ADME Analysis and Molecular Modeling, In Vitro Studies on Anti-Cancer Activities, and NEP Inhibition as a Possible Mechanism of Anti-Proliferative Activity” (International Journal of Molecular Sciences, 2022).

One may read the IC50 as the midpoint of a concentration-inhibition curve. A word on the inhibition: it is the change of the read-out against control, counted positive when it falls. Low values mean a response near the control, high ones a response far below the control.

Assay [1] has as its system active caspase 3 in Saos-2 cells. The assay can be described thus: Active caspase 3 assay (flow cytometry). The assay is classed as cell-based, human. The settings on record: 72 h. As to the method: (§1) The level of active executor caspase 3 and initiator caspase 9 was determined to examine whether compounds 4 and 6 induced apoptosis in the HOS and Saos-2 cells. The influence of compounds 4 and 6 on HOS and Saos-2 were determined with the caspase 3 assay, whereas the influence of compound 6 on the HOS cells was investigated with the caspase 9 assay. In both assays, the osteosarcoma cells (3.0 × 10^5 cells/mL) were seeded in 6-well plates. The cells were treated with compounds 4 and 6 at concentrations of 12.5, 25, 50 µM and 20, 40, 80 µM as well as 15, 30, 60 µM and 21.25, 42.5, 85 µM for 72 h, respectively. The solutions of the compounds were prepared in a medium with 2% FBS. […] Next, floating and adherent cells were harvested and subjected to further steps of the staining procedures according to the manufacturer’s instruction. The level of active caspase 3 and caspase 9 was determined using the PE Active Caspase-3 Apoptosis Kit (BD Pharmingen^TM) and the CaspaTag^TM Caspase-9 in Situ Assay Kit (Millipore, Darmstadt, Germany), respectively. The number of stained cells (active caspase 3- or 9-positive cells) was measured using FACS Calibur, and the obtained data were analyzed using Cell Quest Pro Version 6.0. for the Macintosh operating system (BD Pharmingen™). The presented results were calculated as a percent of cells with either active caspase 3 or 9 among all the analyzed cells.

The subject of assay [2] is active caspase 3 in HOS cells. The assay can be described thus: Active caspase 3 assay (flow cytometry). The assay is classed as cell-based, human. The settings on record: 72 h. As to the method:
as §1
(Flow cytometry measures light scatter and fluorescence of single cells or particles in a stream.)

For assay [3], the system named is HOS cells. The assay can be described thus: Invasiveness, BME-coated transwell assay. The settings on record: 24 h. The assay is classed as cell-based, human. As to the method:
The invasiveness of the HOS osteosarcoma cells was assessed after treatment with compound 4 at concentrations of 12.5, 25 and 50 µM. The assay was carried out using the Trevigen’sCultureCoat®24-well Cell Invasion Assay (R&D Systems, Minneapolis, […], USA) equipped with a Basement Membrane Extract (BME)-coated membrane (8 µm) of transwell inserts. The assay was performed according to the manufacturer’s instruction and as in the transwell migration assay described above.

The subject of assay [4] is osteosarcoma Saos-2 cells. In words: MTT proliferation assay, 96 h. The assay is classed as cell-based, human. Conditions: for IC50: SAOS-2, proliferation, 10% FBS, read-out: IC50 (µM ± SD) Saos-2. As to the method: (§2) One of the features specific totumor cells is the unlimited potential for proliferation. […] To this end, the assay conditions were established suchthat they encourage the proliferation of OS cells, i.e., the cell cultures at low density were incubated with compounds diluted in the growth medium (10% FBS) for an extended time of 96 h. Additionally, cisplatin, i.e., a common cytostatic used in osteosarcoma treatment, was included as a positive control in this study. Moreover, since the new generation of anti-cancer compounds is highly desired to be inert (non-cytotoxic) towards normal cells, the influence of compounds 1–7 on the viability of human normal cells (osteoblasts hFOB 1.19 and colon fibroblasts CCD-18Co) was also determined.To this end, the assay conditions were established such that they restrict the proliferation of OS cells and to establish whether the compounds have cytotoxic potential, i.e., the cell cultures were incubated with compounds diluted in the medium with a reduced concentration of FBS (2%) for a shortened time of 24 h. […] However, this activity varied depending on both the types of the compounds and the osteosarcoma cell lines (Table 4).
(§3) The anti-proliferative activity of compounds 1–7 against the HOS and Saos-2 osteosarcoma cells and the viability of the human normal hFOB 1.19 and CCD-18Co cells were screened by means of the MTT method. This method is commonly used to assess cell viability and proliferation or to determine the cytotoxicity of any compounds. It is a reliable method for this purpose because it is based on measurement of the level reduction in MTT dye to formazan byNAD(P)H-dependent oxidoreductase enzymes of metabolically active cells.
(§4) To assess the anti-proliferative activity of compounds 1–7 against the HOS and Saos-2 osteosarcoma cells, 3.0 × 10^4 cells/mLseeded (low density culture) into 96-well plates (Nunc, Roskilde, Denmark) were incubated with each compound at concentrations of 3.125, 6.25, 12.5, 25, 50, 100 and 200 µM prepared in medium with 10% FBS (growth medium) for 96 h. Additionally, cisplatin (Sigma Aldrich), i.e., a common cytostatic used in osteosarcoma treatment, was included as a positive control in this study. It was tested in the same conditions as compounds 1–7. The negative control was constituted by the untreated cells (0 µM). Next, the MTT assay was carried out as described previously.
(§5) The results of these assays were calculated as a percent of the untreated cells (100%; control). Then, the IC50 (concentration resulting in 50% inhibition of proliferation) and CC50 (concentration resulting in a 50% decrease in viability) values were calculated from a non-linear regression (log(inhibitor) vs. normalized response-variable slope) using GraphPad Prism 5.0 (GraphPAD Software Inc., San Diego, CA, USA). The IC50 and CC50 results were presented as themean ± SD of at least three experiments. In the case of the BrdU assay, the results were presented as a percent of untreated cells (100%; control).
A general note: Formazan colour is commonly taken as a measure of viable cells.

Assay [5] has as its system osteosarcoma HOS cells. In words: MTT proliferation assay, 96 h. The assay is classed as cell-based, human. Conditions: HOS; for IC50: proliferation, 10% FBS, read-out: IC50 (µM ± SD) HOS. As to the method:
as §2, §3, §4, §5

For assay [6], the target named is T1, NEP (neprilysin) (Homo sapiens, UniProt P08473).
T1 construct: purchased BioVision, Waltham, MA, USA
In words: Neutral endopeptidase activity assay (fluorometric). The assay is classed as biochemical. The settings on record: vs control. As to the method:
The NEP activity in the presence of compounds 4 and 6 was determined using the Neprilysin Activity Assay Kit (BioVision, Waltham, MA, USA) according to the manufacturer’s instructions. The measurement is based on the ability of active neprilysin to cleave a synthetic substrate (Abz-based peptide) to release a fluorophore, which can be easily quantified using a fluorescence microplate reader. Briefly, pure neprilysin (5µLof stock solution) was incubated with solutions of the tested compounds (at least 4 concentrations in the range of 0.01–50 µM) for 10 min at 37 °C. The reaction was started by adding the substrate solution, and the final sample volume was 100µL. Fluorescence was measured (Ex/Em = 330/430nm) in the kinetic mode at 37 °C for 1–2 h. The same procedure was used to measure the control and background sample. Thiorphan was used as a reference NEP inhibitor. NEP activity was determined with the prepared Abz standard curve and expressed in µU/mL. The experiments were performed at least in triplicates, and the graphs represent mean ±SD values.

In assay [7] the test system is active caspase 9 in HOS cells. In words: Active caspase 9 assay (flow cytometry). The assay is classed as cell-based, human. Conditions: 72 h. As to the method:
as §1

T1 sequence (P08473 whole entry): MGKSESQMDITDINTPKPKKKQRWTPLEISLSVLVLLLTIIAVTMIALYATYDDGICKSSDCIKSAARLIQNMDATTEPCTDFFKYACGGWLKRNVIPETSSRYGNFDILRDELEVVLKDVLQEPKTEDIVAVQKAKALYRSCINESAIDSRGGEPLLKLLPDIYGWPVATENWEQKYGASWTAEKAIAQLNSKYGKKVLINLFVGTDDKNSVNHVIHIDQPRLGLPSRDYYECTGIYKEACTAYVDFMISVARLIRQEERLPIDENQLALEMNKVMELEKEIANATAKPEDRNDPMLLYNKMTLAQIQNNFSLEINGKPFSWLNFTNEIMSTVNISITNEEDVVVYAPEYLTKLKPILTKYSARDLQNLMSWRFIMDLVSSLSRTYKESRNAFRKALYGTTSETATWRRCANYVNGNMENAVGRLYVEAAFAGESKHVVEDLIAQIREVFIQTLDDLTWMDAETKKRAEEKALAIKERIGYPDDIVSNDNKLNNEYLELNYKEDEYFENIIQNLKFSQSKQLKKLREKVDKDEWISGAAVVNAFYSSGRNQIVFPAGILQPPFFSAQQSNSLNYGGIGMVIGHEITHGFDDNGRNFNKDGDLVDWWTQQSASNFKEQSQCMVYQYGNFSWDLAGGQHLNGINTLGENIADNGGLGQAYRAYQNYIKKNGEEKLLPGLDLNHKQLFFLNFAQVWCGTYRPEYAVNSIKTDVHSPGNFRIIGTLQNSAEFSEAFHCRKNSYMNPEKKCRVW

For the compound `[BH3-][P+](OC(C)C)(OC(C)C)C(Nc1ccc(Br)cc1)c1ccc([N+](=O)[O-])cc1` (centres unmarked) [Compound 4, [1-(N-p-bromophenylamino)]-1-(p-nitrophenyl)methylphosphonousacid-borane diisopropyl ester], the “increase in active caspase 3 vs untreated cells” value in assay [1] (Saos-2, 30 µM) is “approx. 5%”; in assay [1] (Saos-2, 60 µM), around 10%; in assay [2] (25 µM) it was “approx. 5%”; in assay [2] (50 µM), around 6%. Further, the “decrease in cell invasiveness” value in assay [3] (12.5 µM) is on record as “approx. 53%”; in assay [3] (25 µM), around 70%; in assay [3] (50 µM), around 82%. The IC50 came out at 59.9 ± 15 µM in assay [4] (Homo sapiens, MTT) and 27.2 ± 7.8 µM in assay [5] (Homo sapiens). In addition, the inhibition at 25 µM in assay [4] (Homo sapiens, Saos-2, 25 µM, MTT, compared to the control) was around 27%. Further, the “lowest concentration that inhibited proliferation statistically significantly” value is reported as 25 µM in assay [4] (Saos-2, MTT) and 6.25 µM in assay [5]. The same compound returned an inhibition at 6.25 µM in assay [5] (Homo sapiens, 6.25 µM) of around 18%. For the same compound, in assay [6] (0.1 µM), the inhibition at 0.1 µM is around 40%. Also, the inhibition at 0.5 µM in assay [6] (0.5 µM) is around 50%. This compound also gave an inhibition at 10 µM in assay [6] (10 µM) of around 50%. In assay [6], this compound came in with an inhibition at 50 µM of around 50%.
For `[BH3-][P+](OC(C)C)(OC(C)C)C(Nc1ccc(C)cc1)c1ccccc1` (centres unmarked) [Compound 6, [1-(N-p-tolylamino)]-1-phenylmethylphosphonous acid-borane diisopropyl ester], the “increase in active caspase 3 vs untreated cells” value in assay [1] (Saos-2, 42.5 µM) is “approx. 4%”; in assay [1] (Saos-2, 85 µM), around 6%; in assay [2] (40 µM), “approx. 9%”; in assay [2] (80 µM) it was around 20%. Besides, the IC50 turned out to be 86.8 ± 15.7 µM in assay [4] (Homo sapiens, MTT) and 41.5 ± 6.9 µM in assay [5] (Homo sapiens). The “increase in active caspase 9 vs untreated cells” value in assay [7] (40 µM) is listed as “approx. 4%”; in assay [7] (80 µM), around 6%. For the same compound, the inhibition at 50 µM in assay [6] is around 30%.
